Values joined by “and” are separate entries in the source; they are usually repeats but may differ in a detail not shown here. Equal values may be shown once.
C=CC(C)O (stereo not drawn)
101.32 kPa
Details	viscosity [mPa·s]
308.15 K	1.294
313.15 K	1.144
318.15 K	1.015
323.15 K	0.9032

CCCCCCN
viscosity
Details	303.15 K	308.15 K	313.15 K
101 kPa	0.6979 mPa·s and 0.729 mPa·s and 0.7123 mPa·s	0.6 mPa·s and 0.6 mPa·s	0.6134 mPa·s
101.33 kPa	0.7123 mPa·s	–	0.6134 mPa·s

CCCCCCn1cc[n+](C)c1.F[B-](F)(F)F
101 kPa
Details	viscosity
298.15 K	171.8 mPa·s and 211.2 mPa·s
299.15 K	198.1 mPa·s and 197.3 mPa·s
301.15 K	177.2 mPa·s and 175.8 mPa·s
302.15 K	167.2 mPa·s and 165.9 mPa·s
304.15 K	148.4 mPa·s and 148.6 mPa·s
305.15 K	141.2 mPa·s and 140.7 mPa·s
307.15 K	127.5 mPa·s and 126.7 mPa·s
308.15 K	145.4 mPa·s and 120.7 mPa·s and 120 mPa·s
313.15 K	113.6 mPa·s and 55 mPa·s
318.15 K	90.3 mPa·s
323.15 K	72.8 mPa·s and 36 mPa·s

CCCO
Details	viscosity
293.15 K, 101.33 kPa	2.185 mPa·s and 2.327 mPa·s
295.15 K, 101 kPa	2.12 mPa·s
298.15 K, 100 kPa	1.91 mPa·s
298.15 K, 101.31 kPa	2.004 mPa·s
298.15 K, 101.33 kPa	1.743 mPa·s
303 K, 101 kPa	1.634 mPa·s
303 K, 101.33 kPa	1.769 mPa·s
303.15 K, 101 kPa	1.777 mPa·s and 1.591 mPa·s and 1.768 mPa·s
303.15 K, 101.3 kPa	1.6 mPa·s and 1.784 mPa·s
303.16 K, 101 kPa	1.92 mPa·s
308 K, 101.3 kPa	1.461 mPa·s
308.15 K, 101.3 kPa	1.488 mPa·s and 1.4 mPa·s
308.15 K, 101.33 kPa	1.486 mPa·s and 1.466 mPa·s and 1.376 mPa·s
311 K, 101.3 kPa	1.43 mPa·s
313 K, 101.3 kPa	1.317 mPa·s
313.15 K, 101.3 kPa	1.3 mPa·s
313.15 K, 101.33 kPa	1.319 mPa·s
318.15 K, 101.3 kPa	1.1 mPa·s
319 K, 101.3 kPa	1.197 mPa·s
323 K, 101 kPa	0.9714 mPa·s
323 K, 101.3 kPa	1.165 mPa·s
323.15 K, 101 kPa	1.15 mPa·s
323.15 K, 101.3 kPa	0.92 mPa·s
323.15 K, 101.33 kPa	1.136 mPa·s and 1.166 mPa·s

CC[n+]1ccccc1.N#C[N-]C#N
100 kPa
Details	viscosity [mPa·s]
293.15 K	22.1
298.15 K	18.92
303.15 K	16.44
308.15 K	14.31
313.15 K	12.48
318.15 K	10.98

CNc1ccccc1
Details	viscosity [mPa·s]
298 K, 101 kPa	1.963
298 K, 101.3 kPa	1.963
298.15 K, 101 kPa	2.02
303 K, 101.3 kPa	1.717
303 K, 101.33 kPa	1.751
303.15 K, 101 kPa	1.55
308 K, 101.3 kPa	1.538
308.15 K, 101.33 kPa	1.515
313 K, 101.3 kPa	1.386
318 K, 101.3 kPa	1.251
323.15 K, 101 kPa	1.401

CO
Details	viscosity
293.15 K, 100 kPa	0.587 mPa·s and 0.55 mPa·s and 0.58 mPa·s
293.31 K, 101 kPa	0.589 mPa·s
297.8 K, 101 kPa	0.5495 mPa·s
298 K, 101.3 kPa	0.59 mPa·s
298.15 K, 100 kPa	0.5417 mPa·s
298.15 K, 101.33 kPa	0.5365 mPa·s and 0.6152 mPa·s and 0.562 mPa·s
299 K, 101 kPa	0.8138 mPa·s
303 K, 100 kPa	0.5211 mPa·s and 0.5 mPa·s
303 K, 101.3 kPa	0.5773 mPa·s
303.15 K, 100 kPa	0.527 mPa·s
303.15 K, 101.33 kPa	0.5054 mPa·s and 0.541 mPa·s
303.16 K, 101 kPa	0.56 mPa·s
303.21 K, 101 kPa	0.511 mPa·s
308.15 K, 100 kPa	0.498 mPa·s and 0.491 mPa·s and 0.4987 mPa·s
308.15 K, 101.3 kPa	0.474 mPa·s
308.56 K, 101 kPa	0.476 mPa·s
313 K, 100 kPa	0.4373 mPa·s and 0.42 mPa·s
313 K, 101.3 kPa	0.455 mPa·s
313.15 K, 100 kPa	0.471 mPa·s and 0.465 mPa·s
313.15 K, 101.33 kPa	0.4423 mPa·s and 0.463 mPa·s
318.15 K, 100 kPa	0.448 mPa·s and 0.442 mPa·s and 0.4456 mPa·s
321.15 K, 101.32 kPa	0.4101 mPa·s
322.15 K, 101.32 kPa	0.4068 mPa·s
322.9 K, 101 kPa	0.3997 mPa·s
323.15 K, 100 kPa	0.3905 mPa·s and 0.428 mPa·s and 0.421 mPa·s
323.15 K, 101.3 kPa	0.396 mPa·s
323.15 K, 101.32 kPa	0.401 mPa·s
323.15 K, 101.33 kPa	0.3907 mPa·s and 0.406 mPa·s

COC(=O)OC
viscosity
Details	293.15 K	298.15 K	303.15 K	308.15 K	313.15 K	318.15 K	323.15 K
100 kPa	0.62 mPa·s	0.58 mPa·s	0.5 mPa·s	0.47 mPa·s	0.45 mPa·s and 0.489 mPa·s	0.43 mPa·s and 0.462 mPa·s	0.38 mPa·s and 0.437 mPa·s
101 kPa	0.624 mPa·s	0.58 mPa·s	0.55 mPa·s and 0.55 mPa·s	0.49 mPa·s and 0.519 mPa·s	0.45 mPa·s and 0.491 mPa·s	0.4 mPa·s and 0.465 mPa·s	0.442 mPa·s
101.3 kPa	0.628 mPa·s	–	0.553 mPa·s	0.524 mPa·s	0.496 mPa·s	–	–
101.33 kPa	–	–	0.503 mPa·s	0.474 mPa·s	–	–	–

COCCOCCOC
Details	viscosity
298.15 K, 101 kPa	0.983 mPa·s and 0.983 mPa·s and 0.996 mPa·s
298.15 K, 101.32 kPa	0.989 mPa·s
301.15 K, 100 kPa	1.2 mPa·s and 1.3 mPa·s and 1.4 mPa·s
303.15 K, 101 kPa	0.923 mPa·s
303.15 K, 101.33 kPa	0.904 mPa·s
308.15 K, 101 kPa	0.839 mPa·s and 0.839 mPa·s and 0.868 mPa·s
318.15 K, 101 kPa	0.721 mPa·s and 0.721 mPa·s
318.15 K, 101.33 kPa	0.728 mPa·s (4×) and 0.725 mPa·s and 0.728 mPa·s

ClC(Cl)C(Cl)Cl
viscosity
Details	298.15 K	303 K	303.15 K	313.15 K	323.15 K
101 kPa	1.632 mPa·s	–	1.455 mPa·s and 1.521 mPa·s	–	–
101.3 kPa	–	–	1.484 mPa·s	–	–
101.32 kPa	–	–	1.45 mPa·s and 1.455 mPa·s	1.367 mPa·s	1.18 mPa·s
101.33 kPa	1.581 mPa·s	1.381 mPa·s	1.455 mPa·s	–	1.075 mPa·s

N#CCCO
Details	viscosity [mPa·s]
298 K, 101 kPa	3.571

NCCCN
viscosity
Details	293.15 K	298.15 K	303.15 K	308.15 K	313.15 K	318.15 K	323.15 K
100 kPa	1.965 mPa·s and 1.96 mPa·s	1.769 mPa·s and 1.74 mPa·s	1.506 mPa·s and 1.57 mPa·s	1.465 mPa·s and 1.39 mPa·s	1.259 mPa·s and 1.26 mPa·s	1.181 mPa·s and 1.07 mPa·s	–
101 kPa	–	–	1.608 mPa·s and 1.594 mPa·s	1.445 mPa·s and 1.423 mPa·s	1.306 mPa·s and 1.297 mPa·s	1.191 mPa·s and 1.181 mPa·s	1.09 mPa·s and 1.07 mPa·s
101.3 kPa	2.03 mPa·s	1.83 mPa·s	1.62 mPa·s	1.42 mPa·s	1.23 mPa·s	1.13 mPa·s	–
101.33 kPa	1.93 mPa·s	1.67 mPa·s	1.52 mPa·s and 1.594 mPa·s	1.37 mPa·s and 1.423 mPa·s	1.22 mPa·s and 1.297 mPa·s	1.11 mPa·s and 1.181 mPa·s	1.07 mPa·s

OC(C(F)(F)F)C(F)(F)F
101 kPa
Details	viscosity
298.15 K	1.579 mPa·s and 1.619 mPa·s
303.15 K	1.361 mPa·s
313.15 K	0.989 mPa·s and 1 mPa·s
323.15 K	0.765 mPa·s and 0.788 mPa·s

Oc1ccccc1
Details	viscosity
293.15 K, 101 kPa	11.04 mPa·s and 11.04 mPa·s and 11.04 mPa·s
293.2 K, 101 kPa	11.04 mPa·s
293.25 K, 101 kPa	11.04 mPa·s and 11.04 mPa·s
298 K, 101.3 kPa	9.41 mPa·s
298.15 K, 101 kPa	8.945 mPa·s
302.95 K, 101 kPa	7.09 mPa·s and 7.1 mPa·s
303 K, 101.3 kPa	7.553 mPa·s
303.05 K, 101 kPa	7.09 mPa·s
303.1 K, 101 kPa	7 mPa·s
303.15 K, 101.33 kPa	7 mPa·s
308 K, 101.3 kPa	6.106 mPa·s
308.1 K, 101 kPa	5.55 mPa·s
308.15 K, 101 kPa	6.032 mPa·s and 4.649 mPa·s
308.15 K, 101.33 kPa	5.969 mPa·s
313 K, 101.3 kPa	4.971 mPa·s
313.05 K, 101 kPa	4.79 mPa·s
313.25 K, 101 kPa	4.74 mPa·s
313.35 K, 101 kPa	4.74 mPa·s
318 K, 101.3 kPa	4.056 mPa·s
322.95 K, 101 kPa	3.28 mPa·s
323.1 K, 101 kPa	3.2 mPa·s and 3.2 mPa·s
323.15 K, 101.33 kPa	3.2 mPa·s and 3.432 mPa·s

From the CheMixHub viscosity set
